Reference: ChEMBL document CHEMBL1201862, “PubChem BioAssay data set” (2004)
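Step 1: Grow cells in 96-well plates. Step 2: Expose to compound for 48 hours at 5 concentrations. Step 3: Interpolate endpoints linearly; if unreached, use highest concentration. GI50 = concentration required for 50% inhibition of growth.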 Activity calls are given as the source filed them. Rule as the data show it: active = GI50 up to about 1.1 µM and inactive = higher. Non-standard residues stand in square brackets, D forms with d. Residues, ends and D or L forms follow the SMILES beside them. *: point of attachment. hSer = N[CH](CCO)C(=O)O; Boc = CC(C)(C)OC(=O)*

What was measured:
Test in all cases: inhibition of tumour cell growth, NCI panel, 48 h
MCF7 = test system: MCF7
SR = test system: SR
SK-MEL-5 = test system: SK-MEL-5
Hs-578T = test system: Hs-578T
MDA-MB-231 = test system: MDA-MB-231
CAKI-1 = test system: CAKI-1
HCT-15 = test system: HCT-15
RXF 393 = test system: RXF 393
HCT-116 = test system: HCT-116
PC-3 = test system: PC-3
SF-268 = test system: SF-268
SK-OV-3 = test system: SK-OV-3
LOX IMVI = test system: LOX IMVI
K562 = test system: K562
MOLT-4 = test system: MOLT-4
UACC-62 = test system: UACC-62
UO-31 = test system: UO-31
IGROV-1 = test system: IGROV-1
HL-60 = test system: HL-60
NCI-H23 = test system: NCI-H23

Row | Structure (SMILES) | GI50 (MCF7) | GI50 (SR) | GI50 (SK-MEL-5) | GI50 (Hs-578T) | GI50 (MDA-MB-231) | GI50 (CAKI-1) | GI50 (HCT-15) [µM] | GI50 (RXF 393) | GI50 (HCT-116) | GI50 (PC-3) | GI50 (SF-268) | GI50 (SK-OV-3) | GI50 (LOX IMVI) | GI50 (K562) | GI50 (MOLT-4) | GI50 (UACC-62) | GI50 (UO-31) | GI50 (IGROV-1) | GI50 (HL-60) | GI50 (NCI-H23)
1 | CC(C(=O)O)c1ccc(-c2ccccc2)c(F)c1 (configuration not stated) [FLURBIPROFEN] | > 100 µM (inactive) | > 100 µM (inactive) | > 100 µM (inactive) | > 100 µM (inactive) | > 100 µM (inactive) | > 100 µM (inactive) | > 100 | > 100 µM (inactive) | > 100 µM (inactive) | > 100 µM (inactive) | > 100 µM (inactive) | > 100 µM (inactive) | > 100 µM (inactive) | > 100 µM (inactive) | > 100 µM (inactive) | > 100 µM (inactive) | > 100 µM (inactive) | > 100 µM (inactive) | > 100 µM (inactive) | –
2 | CC12CCC([C@H](C(O)C3CCCCC3)C1=O)C2(C)C (some centres not stated) | > 100 µM (inactive) | 22.4 µM (inactive) | 82.2 µM (inactive) | > 100 µM (inactive) | > 100 µM (inactive) | > 100 µM (inactive) | > 100 | 75.2 µM (inactive) | > 100 µM (inactive) | > 100 µM (inactive) | > 100 µM (inactive) | > 100 µM (inactive) | > 100 µM (inactive) | 63 µM (inactive) | 44.3 µM (inactive) | > 100 µM (inactive) | > 100 µM (inactive) | > 100 µM (inactive) | 13.9 µM (inactive) | > 100 µM (inactive)
3 | CNC(=O)CNC(=O)N(C[C@@H]1CCCN1C(=O)[C@H](CC(C)C)NC(=O)OC(C)(C)C)C(C)C | > 100 µM (inactive) | > 100 µM (inactive) | > 100 µM (inactive) | > 100 µM (inactive) | > 100 µM (inactive) | > 100 µM (inactive) | > 100 | > 100 µM (inactive) | > 100 µM (inactive) | > 100 µM (inactive) | > 100 µM (inactive) | > 100 µM (inactive) | > 100 µM (inactive) | > 100 µM (inactive) | > 100 µM (inactive) | > 100 µM (inactive) | > 100 µM (inactive) | > 100 µM (inactive) | > 100 µM (inactive) | > 100 µM (inactive)
4 | O=C1/C(=C/c2ccc(Cl)c(Cl)c2)CNC/C1=C\c1ccc(Cl)c(Cl)c1 | 7.64 µM (inactive) | 3.96 µM (inactive) | 36.5 µM (inactive) | 3.21 µM (inactive) | 3.14 µM (inactive) | 4.09 µM (inactive) | 2.94 | 14 µM (inactive) | 2.57 µM (inactive) | 13.9 µM (inactive) | 3.95 µM (inactive) | 40.7 µM (inactive) | 5.07 µM (inactive) | 3.1 µM (inactive) | 5.4 µM (inactive) | 14 µM (inactive) | 17.5 µM (inactive) | 7.6 µM (inactive) | 8.39 µM (inactive) | 8.51 µM (inactive)
5 | COc1ccc2nc3cc(Cl)ccc3c(NCCNCCCNC(=O)c3cc(-c4ccccc4)nc4ccccc34)c2c1 | > 100 µM (inactive) | 38.3 µM (inactive) | 67 µM (inactive) | > 100 µM (inactive) | > 100 µM (inactive) | > 100 µM (inactive) | > 100 | > 100 µM (inactive) | > 100 µM (inactive) | 56.6 µM (inactive) | > 100 µM (inactive) | > 100 µM (inactive) | 82.6 µM (inactive) | 70.8 µM (inactive) | > 100 µM (inactive) | > 100 µM (inactive) | > 100 µM (inactive) | > 100 µM (inactive) | 31.3 µM (inactive) | > 100 µM (inactive)
6 | COCCC(NC(=O)C(CC(C)C)NC(=O)OC(C)(C)C)C(N)=O (stereo not drawn) (Boc-Leu-[hSer](Me)-NH2; configuration not given here) | > 100 µM (inactive) | > 100 µM (inactive) | > 100 µM (inactive) | > 100 µM (inactive) | > 100 µM (inactive) | > 100 µM (inactive) | > 100 | > 100 µM (inactive) | > 100 µM (inactive) | > 100 µM (inactive) | > 100 µM (inactive) | > 100 µM (inactive) | > 100 µM (inactive) | > 100 µM (inactive) | > 100 µM (inactive) | > 100 µM (inactive) | > 100 µM (inactive) | > 100 µM (inactive) | > 100 µM (inactive) | –
7 | COc1ccc(Cc2cc(OC)c(OC)c(OC)c2)cc1O | 0.0244 µM (active) | 0.0194 µM (active) | 0.0215 µM (active) | 0.0137 µM (active) | 0.0122 µM (active) | > 24.7 µM (inactive) | 0.019 | 0.181 µM (active) | 0.064 µM (active) | < 0.0171 µM (active) | 0.122 µM (active) | 0.274 µM (active) | 0.0547 µM (active) | 0.0161 µM (active) | 0.0211 µM (active) | 0.457 µM (active) | 1.03 µM (active) | 3.78 µM (inactive) | 0.0235 µM (active) | 0.101 µM (active)
8 | COc1cc2c(c(OC)c1OC)-c1ccc(OC)c(=O)cc1C(NC(=O)COc1ccccc1)CC2 (configuration not stated) | < 0.01 µM (active) | < 0.01 µM (active) | < 0.01 µM (active) | < 0.01 µM (active) | < 0.01 µM (active) | < 0.01 µM (active) | 0.0104 | 0.0184 µM (active) | < 0.01 µM (active) | < 0.01 µM (active) | < 0.01 µM (active) | 0.0282 µM (active) | < 0.01 µM (active) | < 0.0208 µM (active) | < 0.01 µM (active) | < 0.01 µM (active) | 0.0402 µM (active) | < 0.01 µM (active) | 0.0372 µM (active) | < 0.01 µM (active)
9 | C/C(=N\NC(=O)N/N=C(\C)c1ccccn1)c1ccccn1 | 7.16 µM (inactive) | 0.394 µM (active) | 0.296 µM (active) | > 38.6 µM (inactive) | 0.333 µM (active) | 38.8 µM (inactive) | 37.8 | 28.1 µM (inactive) | 0.336 µM (active) | 37.2 µM (inactive) | 4.18 µM (inactive) | > 100 µM (inactive) | 0.466 µM (active) | 0.118 µM (active) | 0.555 µM (active) | 40.9 µM (inactive) | 22.8 µM (inactive) | 6.59 µM (inactive) | 0.0767 µM (active) | 0.15 µM (active)
10 | Nc1ncnc2nn(C3OC(CO)C(O)C3O)nc12 (configuration not stated) | 8.28 µM (inactive) | 2.99 µM (inactive) | 12.8 µM (inactive) | 31.5 µM (inactive) | 3.75 µM (inactive) | 8.55 µM (inactive) | 5.62 | 2 µM (inactive) | 7.87 µM (inactive) | 17.3 µM (inactive) | 20.4 µM (inactive) | 2.67 µM (inactive) | 6.32 µM (inactive) | 5.46 µM (inactive) | 15.1 µM (inactive) | 25.4 µM (inactive) | 6.44 µM (inactive) | 4.12 µM (inactive) | 2.43 µM (inactive) | 20.3 µM (inactive)
11 | CCOC(=O)c1oc2cc3c(c4c2c1-c1ccccc1N4C)C=CC(C)(C)O3 | 2.37 µM (inactive) | 0.56 µM (active) | 15.8 µM (inactive) | 19.9 µM (inactive) | 10.4 µM (inactive) | 15.9 µM (inactive) | 50.4 | 7.31 µM (inactive) | 14.2 µM (inactive) | 12.3 µM (inactive) | 13.5 µM (inactive) | 13.4 µM (inactive) | 16.4 µM (inactive) | 6.71 µM (inactive) | 14 µM (inactive) | 11.9 µM (inactive) | 19.5 µM (inactive) | 15.8 µM (inactive) | 24.4 µM (inactive) | 22.2 µM (inactive)
12 | COc1ccc2c(c1)CCC(CN1CCN(CCOC(c3ccc(F)cc3)c3ccc(F)cc3)CC1)C2O (configuration not stated) | 19.3 µM (inactive) | 6.28 µM (inactive) | 5.65 µM (inactive) | 15.4 µM (inactive) | 13.6 µM (inactive) | 15.8 µM (inactive) | 10.4 | 12.3 µM (inactive) | 11.1 µM (inactive) | 11.7 µM (inactive) | 13.9 µM (inactive) | 15.5 µM (inactive) | 15.3 µM (inactive) | 4.51 µM (inactive) | 10.5 µM (inactive) | 11.5 µM (inactive) | – | 13.8 µM (inactive) | 0.687 µM (active) | 14.5 µM (inactive)
13 | CC1(c2ccc(Cl)cc2)C=C(c2ccc(Cl)cc2)C(C#N)=C(C(C#N)C#N)N1.CNC (configuration not stated) | 16.6 µM (inactive) | 15.7 µM (inactive) | 14.2 µM (inactive) | 9.82 µM (inactive) | 24.9 µM (inactive) | 16.9 µM (inactive) | 15.1 | 18.7 µM (inactive) | 14 µM (inactive) | 16.6 µM (inactive) | 10.7 µM (inactive) | 17.1 µM (inactive) | 17 µM (inactive) | 19.2 µM (inactive) | 13.6 µM (inactive) | 14.1 µM (inactive) | 16.4 µM (inactive) | 12.9 µM (inactive) | 13.1 µM (inactive) | 15.3 µM (inactive)
14 | [N-]=[N+]=NC1C(O)C(CO)OC1n1ccc(=O)[nH]c1=O (configuration not stated) | > 875 µM (inactive) | > 875 µM (inactive) | > 875 µM (inactive) | > 875 µM (inactive) | > 875 µM (inactive) | > 875 µM (inactive) | > 875 | 0.0875 µM (active) | > 875 µM (inactive) | > 875 µM (inactive) | > 875 µM (inactive) | > 875 µM (inactive) | > 875 µM (inactive) | > 875 µM (inactive) | > 875 µM (inactive) | > 875 µM (inactive) | > 875 µM (inactive) | > 875 µM (inactive) | 863 µM (inactive) | > 875 µM (inactive)
